# From ChEMBL document CHEMBL3603752, “Discovery of N-(4-aryl-5-aryloxy-thiazol-2-yl)-amides as potent RORγt inverse agonists” (Bioorg Med Chem, 2015)
# How the values were obtained:
# [1] = molecular target: T1, Nuclear receptor ROR-gamma (Mus musculus, UniProt P51450); assay: Inverse agonist activity at RORgammat in mouse Th17 cells assessed as inhibition of IL-17 production after 3 days by ELISA; assay type: cell-based
# T1 sequence (P51450 whole entry): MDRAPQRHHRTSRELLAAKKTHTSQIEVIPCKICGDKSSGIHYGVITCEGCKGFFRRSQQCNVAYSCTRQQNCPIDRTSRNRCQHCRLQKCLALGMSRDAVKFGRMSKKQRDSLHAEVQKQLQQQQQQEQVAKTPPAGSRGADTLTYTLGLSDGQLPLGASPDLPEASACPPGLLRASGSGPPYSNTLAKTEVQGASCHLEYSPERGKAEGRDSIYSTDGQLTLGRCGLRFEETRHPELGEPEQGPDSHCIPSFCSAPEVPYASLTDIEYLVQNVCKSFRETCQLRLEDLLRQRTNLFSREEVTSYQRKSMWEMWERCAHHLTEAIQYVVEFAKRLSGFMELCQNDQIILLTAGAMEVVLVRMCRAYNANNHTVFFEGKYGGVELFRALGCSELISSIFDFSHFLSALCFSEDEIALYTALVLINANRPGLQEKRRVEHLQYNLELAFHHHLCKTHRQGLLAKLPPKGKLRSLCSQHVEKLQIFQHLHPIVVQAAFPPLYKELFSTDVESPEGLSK
# [2] = test system: Liver; assay: Intrinsic clearance in mouse liver microsomes at 0.5 microM by LC/MS/MS analysis; assay type: ADME
# [3] = molecular target: T2, Nuclear receptor ROR-gamma (Homo sapiens, UniProt P51449); assay: Inverse agonist activity at APC-labeled RORgammat-LBD (unknown origin) assessed as inhibition of N-(2-chloro-6-fluorobenzyl)-N-((2'-methoxy-[1,1'-biphenyl]-4-yl)-methyl)benzenesulfonamide-induced europium-labeled SRC1 recruitment after 1 hr by FRET analysis
# T2 sequence (P51449 whole entry): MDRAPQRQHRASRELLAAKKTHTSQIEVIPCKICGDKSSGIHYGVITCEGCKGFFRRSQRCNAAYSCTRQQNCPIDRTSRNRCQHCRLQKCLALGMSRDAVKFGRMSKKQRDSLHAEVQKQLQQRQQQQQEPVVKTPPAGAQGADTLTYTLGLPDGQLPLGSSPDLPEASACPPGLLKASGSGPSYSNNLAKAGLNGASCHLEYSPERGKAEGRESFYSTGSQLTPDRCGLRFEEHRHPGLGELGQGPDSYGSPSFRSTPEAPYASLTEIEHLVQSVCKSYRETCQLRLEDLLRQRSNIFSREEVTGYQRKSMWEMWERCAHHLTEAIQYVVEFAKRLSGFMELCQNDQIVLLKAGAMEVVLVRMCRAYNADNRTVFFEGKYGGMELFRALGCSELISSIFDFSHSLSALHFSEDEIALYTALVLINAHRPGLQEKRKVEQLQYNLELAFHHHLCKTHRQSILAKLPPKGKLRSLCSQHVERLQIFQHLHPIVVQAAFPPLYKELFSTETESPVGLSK
# [4] = molecular target: T2, Nuclear receptor ROR-gamma; assay: Agonist activity at APC-labeled RORgammat-LBD (unknown origin) assessed as induction of europium-labeled SRC1 recruitment after 1 hr by dual FRET analysis
SMILES,IC50 [1] [nM],CLH [2] [mL/min/g],IC50 [3] [nM],EC50 [4] [nM]
CCS(=O)(=O)c1ccc(CC(=O)Nc2nc(-c3ccccc3)c(Oc3ccccc3Cl)s2)cc1,1580,0.46,–,–
CCS(=O)(=O)c1ccc(CC(=O)Nc2nc(-c3cccc(C#N)c3)c(Oc3ccc(C(F)(F)F)cc3Cl)s2)cc1,398,< 0.36,–,–
CCS(=O)(=O)c1ccc(CC(=O)Nc2nc(-c3cccc(Cl)c3)c(Oc3ccccc3C(F)(F)F)s2)cc1,2000,< 0.36,–,–
CCS(=O)(=O)c1ccc(CC(=O)Nc2nc(-c3ccccc3)c(Oc3ccccc3C(F)(F)F)s2)cc1,1000,< 0.36,–,–
CCS(=O)(=O)c1ccc(CC(=O)Nc2nc(-c3cccc(C#N)c3)c(Oc3ccccc3C(F)(F)F)s2)cc1,251,< 0.36,–,–
CCS(=O)(=O)c1ccc(CC(=O)Nc2nc(-c3cccc(C#N)c3)c(Oc3ccc(Cl)cc3C(F)(F)F)s2)cc1,158,< 0.36,–,–
CCS(=O)(=O)c1ccc(CC(=O)Nc2nc(-c3cccc(Cl)c3)c(Oc3ccccc3)s2)cc1,1580,–,–,–
CCS(=O)(=O)c1ccc(CC(=O)Nc2nc(-c3cc(Cl)ccc3Cl)c(-c3ccccc3)s2)cc1,–,–,158,3160
CCS(=O)(=O)c1ccc(CC(=O)Nc2nc(-c3ccc(Cl)cc3)c(Oc3ccccc3)s2)cc1,3980,< 0.36,–,–
CCS(=O)(=O)c1ccc(CC(=O)Nc2nc(-c3ccccc3)c(Oc3ccccc3OC)s2)cc1,251,2.37,–,–
CCS(=O)(=O)c1ccc(CC(=O)Nc2nc(-c3ccccc3)c(Oc3ccc(C(F)(F)F)cc3)s2)cc1,631,< 0.36,–,–
CCS(=O)(=O)c1ccc(CC(=O)Nc2nc(-c3ccccc3)c(Oc3ccc(Cl)cc3)s2)cc1,1580,< 0.36,–,–
CCS(=O)(=O)c1ccc(CC(=O)Nc2nc(-c3ccccc3)c(Oc3ccc(OC)cc3)s2)cc1,> 10000,0.39,–,–
